Data as given in ChEMBL document CHEMBL5608197, “Optimization of pyrazolopyridine 4-carboxamides with potent antimalarial activity for which resistance is associated with the P. falciparum transporter ABCI3” (Eur J Med Chem, 2024).
Calls of active or inactive are those of the source. No cut-off for these calls is given here.

Columns and labels:
Plasmodium falciparum [1] = assay: Antiplasmodial activity against multidrug-resistant Plasmodium falciparum TM90-C2B infected in erythrocytes assessed as inhibition of parasite growth incubated for 72 hrs by [3H]hypoxanthine incorporation based microbeta counting analysis; format: functional, organism-based; settings: Erythrocyte
Plasmodium falciparum [2] = assay: Antimalarial activity against asexual stage of Plasmodium falciparum 3D7 infected in erythrocytes assessed as parasite killing at 10XEC50 incubated for 48 hrs with compound renewal for every 24 hrs followed by drug removal and incubation for 48 hrs with CFDA-SE labelled fresh erythrocytes by Hoechst 33342 staining based two-color flow cytometry; format: functional, organism-based; settings: Erythrocyte
Plasmodium falciparum [3] = assay: Antiplasmodial activity against ring stage of Plasmodium falciparum 3D7 expressing ABCI3-HAreg assessed as inhibition of parasite proliferation incubated for 72 hrs in presence of ABCI3 inhibitor, GlcN by SYBR dye based flow cytometry; format: functional, organism-based; settings: 3D7, 72 h
Plasmodium falciparum [4] = assay: Resistance ratio of EC90 for antiplasmodial activity against drug-resistant recrudescent Plasmodium falciparum Dd2-B2 in 2x10^7 bulk culture selection measured on day 15 under initial selection drug pressure concentration of 3XEC50 to EC90 for antiplasmodial activity against Plasmodium flaciparum Dd2 measured after 72 hrs; format: functional
CYP2D6 [5] = molecular target: T1, CYP2D6 (Homo sapiens, UniProt P10635); assay: Inhibition of CYP2D6 (unknown origin) at 1 uM relative to control; format: ADME
T1 sequence (P10635 whole entry): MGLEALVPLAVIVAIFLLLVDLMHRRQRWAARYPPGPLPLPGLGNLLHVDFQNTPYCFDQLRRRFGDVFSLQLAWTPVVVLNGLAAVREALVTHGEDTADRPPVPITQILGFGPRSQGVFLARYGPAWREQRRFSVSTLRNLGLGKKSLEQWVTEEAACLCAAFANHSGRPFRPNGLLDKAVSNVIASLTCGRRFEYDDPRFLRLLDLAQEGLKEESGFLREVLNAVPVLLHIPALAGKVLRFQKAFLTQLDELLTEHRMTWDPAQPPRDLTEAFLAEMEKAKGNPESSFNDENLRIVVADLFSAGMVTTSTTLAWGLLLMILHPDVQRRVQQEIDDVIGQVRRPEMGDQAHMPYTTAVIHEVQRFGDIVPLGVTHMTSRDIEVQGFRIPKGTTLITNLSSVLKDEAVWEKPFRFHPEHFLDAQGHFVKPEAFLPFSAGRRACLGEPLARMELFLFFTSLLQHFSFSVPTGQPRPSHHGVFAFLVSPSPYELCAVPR

CYP2C9 = CYP2C9 (Homo sapiens, UniProt P11712); assay: Inhibition of CYP2C9 (unknown origin) at 1 uM relative to control; format: ADME
Sequence of CYP2C9 (P11712 whole entry): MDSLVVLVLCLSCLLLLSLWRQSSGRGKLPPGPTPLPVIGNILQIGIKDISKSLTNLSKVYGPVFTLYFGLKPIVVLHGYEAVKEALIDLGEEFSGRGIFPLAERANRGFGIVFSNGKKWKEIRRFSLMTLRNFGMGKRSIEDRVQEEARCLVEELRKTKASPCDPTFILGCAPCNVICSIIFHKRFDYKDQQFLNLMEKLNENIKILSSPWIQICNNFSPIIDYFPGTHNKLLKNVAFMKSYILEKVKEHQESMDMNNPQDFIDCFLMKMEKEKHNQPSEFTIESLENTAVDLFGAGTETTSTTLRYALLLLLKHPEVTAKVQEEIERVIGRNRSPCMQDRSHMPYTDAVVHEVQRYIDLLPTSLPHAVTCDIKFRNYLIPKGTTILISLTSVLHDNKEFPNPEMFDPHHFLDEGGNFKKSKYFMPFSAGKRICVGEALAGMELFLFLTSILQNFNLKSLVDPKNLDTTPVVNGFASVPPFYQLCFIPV

Plasmodium falciparum [6] = assay: Antiplasmodial activity against drug-resistant recrudescent Plasmodium falciparum Dd2-B2 in 2x10^7 bulk culture selection assessed as inhibition of parasite growth incubated for 72 hrs by flow cytometry; format: functional, organism-based
CYP1A2 [7] = molecular target: T2, CYP1A2 (Homo sapiens, UniProt P05177); assay: Inhibition of CYP1A2 (unknown origin) at 10 uM relative to control; format: ADME
T2 sequence (P05177 whole entry): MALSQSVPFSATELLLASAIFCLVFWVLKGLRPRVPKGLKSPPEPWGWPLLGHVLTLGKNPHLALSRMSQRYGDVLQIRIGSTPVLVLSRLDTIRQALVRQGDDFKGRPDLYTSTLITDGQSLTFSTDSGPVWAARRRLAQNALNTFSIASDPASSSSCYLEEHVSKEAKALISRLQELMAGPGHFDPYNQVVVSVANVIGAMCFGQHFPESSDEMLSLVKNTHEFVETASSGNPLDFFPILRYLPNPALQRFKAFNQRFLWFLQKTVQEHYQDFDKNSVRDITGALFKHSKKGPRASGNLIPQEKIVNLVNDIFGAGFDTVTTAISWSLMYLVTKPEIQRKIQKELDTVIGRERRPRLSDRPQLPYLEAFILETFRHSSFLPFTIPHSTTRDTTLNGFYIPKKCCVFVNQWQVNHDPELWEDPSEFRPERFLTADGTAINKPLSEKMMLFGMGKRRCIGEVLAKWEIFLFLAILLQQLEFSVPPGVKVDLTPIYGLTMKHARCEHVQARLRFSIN

CYP3A4 = CYP3A4 (Homo sapiens, UniProt P08684); assay: Inhibition of CYP3A4 (unknown origin) at 10 uM relative to control; format: ADME
Sequence of CYP3A4 (P08684 whole entry): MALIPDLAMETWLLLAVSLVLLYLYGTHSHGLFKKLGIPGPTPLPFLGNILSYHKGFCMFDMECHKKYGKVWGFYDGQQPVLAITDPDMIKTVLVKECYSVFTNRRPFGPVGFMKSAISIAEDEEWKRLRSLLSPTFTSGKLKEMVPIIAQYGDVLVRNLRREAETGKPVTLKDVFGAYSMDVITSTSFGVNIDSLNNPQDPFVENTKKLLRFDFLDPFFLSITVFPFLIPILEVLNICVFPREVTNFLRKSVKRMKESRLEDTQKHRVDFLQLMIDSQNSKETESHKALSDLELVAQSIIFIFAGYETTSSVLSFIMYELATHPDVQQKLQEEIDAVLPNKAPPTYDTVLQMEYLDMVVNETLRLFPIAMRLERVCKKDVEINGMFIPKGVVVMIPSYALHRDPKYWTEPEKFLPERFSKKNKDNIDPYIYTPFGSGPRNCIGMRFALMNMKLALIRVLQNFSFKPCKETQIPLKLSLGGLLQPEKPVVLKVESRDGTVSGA

Plasmodium falciparum [8] = assay: Antimalarial activity against asexual stage of Plasmodium falciparum 3D7 infected in erythrocytes assessed as lag phase of parasite growth at 10XEC50 incubated for 24 hrs followed by drug removal and incubation for 48 hrs with CFDA-SE labelled fresh erythrocytes by Hoechst 33342 staining based two-color flow cytometry; format: functional, organism-based; settings: Erythrocyte
[9] = Efflux ratio of permeability across basolateral to apical side over apical to basolateral side in human Caco-2 cells at pH 7.4; format: ADME, cell-based; settings: Caco-2, pH 7.4
Plasmodium falciparum [10] = assay: Antiplasmodial activity against multidrug-resistant Plasmodium falciparum Dd2 harboring cyt b-I22L mutant infected in erythrocytes assessed as inhibition of parasite growth incubated for 72 hrs by [3H]hypoxanthine incorporation based microbeta counting analysis; format: functional, organism-based; settings: Dd2, Erythrocyte
Plasmodium falciparum [11] = assay: Antiplasmodial activity against multidrug-resistant Plasmodium falciparum NF54 infected in erythrocytes assessed as inhibition of parasite growth incubated for 72 hrs by [3H]hypoxanthine incorporation based microbeta counting analysis; format: functional, organism-based; settings: NF54, Erythrocyte
Plasmodium falciparum [12] = assay: Antiplasmodial activity against Plasmodium falciparum Dd2-B2 assessed as inhibition of parasite growth incubated for 72 hrs by flow cytometry; format: functional, organism-based
Plasmodium falciparum [13] = assay: Antiplasmodial activity against multidrug-resistant Plasmodium falciparum Dd2 harboring PI4K-S743F mutant infected in erythrocytes assessed as inhibition of parasite growth incubated for 72 hrs by [3H]hypoxanthine incorporation based microbeta counting analysis; format: functional, organism-based; settings: Dd2, Erythrocyte
Plasmodium falciparum [14] = assay: Antiplasmodial activity against drug-resistant Plasmodium falciparum Dd2-B2 in 2x10^5 bulk culture selection assessed as concentration required to complete parasite killing measured on day 5 under initial selection drug pressure concentration of 3XEC50 by Minimum inoculum of resistance analysis; format: functional; settings: time 5 day
Plasmodium falciparum [15] = assay: Resistance ratio of EC90 for antiplasmodial activity against drug-resistant recrudescent Plasmodium falciparum Dd2-B2 in 2x10^5 to 2x10^6 bulk culture selection measured on day 15 under initial selection drug pressure concentration of 3XEC50 to EC90 for antiplasmodial activity against Plasmodium flaciparum Dd2 measured after 72 hrs; format: functional
CYP1A2 [16] = molecular target: T2, CYP1A2; assay: Inhibition of CYP1A2 (unknown origin) at 1 uM relative to control; format: ADME
Plasmodium falciparum [17] = assay: Antiplasmodial activity against Plasmodium falciparum Dd2 infected in erythrocytes assessed as inhibition of parasite growth incubated for 72 hrs by [3H]hypoxanthine incorporation based microbeta counting analysis; format: functional, organism-based; settings: Dd2, Erythrocyte
Plasmodium falciparum [18] = assay: Antiplasmodial activity against multidrug-resistant Plasmodium falciparum Dd2 harboring DHODH-C276F mutant infected in erythrocytes assessed as inhibition of parasite growth incubated for 72 hrs by [3H]hypoxanthine incorporation based microbeta counting analysis; format: functional, organism-based; settings: Dd2, Erythrocyte
Plasmodium falciparum [19] = assay: Antiplasmodial activity against multidrig-resistant Plasmodium falciparum Dd2 harboring eEF2Y-I86N mutant infected in erythrocytes assessed as inhibition of parasite growth incubated for 72 hrs by [3H]hypoxanthine incorporation based microbeta counting analysis; format: functional, organism-based; settings: Dd2, Erythrocyte
Plasmodium falciparum [20] = assay: Antiplasmodial activity against asexual blood stage of Plasmodium falciparum 3D7 assessed as inhibition of parasite growth incubated for 72 hrs by LDH assay; format: functional, organism-based; settings: 3D7, 72 h
[21] = Cytotoxicity against human HepG2 cells assessed as inhibition of cell growth incubated for 48 hrs by CellTiter-Glo luminescence assay; format: toxicity, cell-based
Plasmodium falciparum [22] = assay: Antiplasmodial activity against drug-resistant Plasmodium falciparum Dd2-B2 bulk cultures assessed as minimum inoculum of resistance measured under initial selection drug pressure concentration of 3XEC50 by MIR analysis; format: functional
Plasmodium falciparum [23] = assay: Antiplasmodial activity against multidrug-resistant Plasmodium falciparum Dd2 harboring CARL-I1139K mutant infected in erythrocytes assessed as inhibition of parasite growth incubated for 72 hrs by [3H]hypoxanthine incorporation based microbeta counting analysis; format: functional, organism-based; settings: Dd2, Erythrocyte
Plasmodium falciparum [24] = assay: Antiplasmodial activity against multidrug-resistant Plasmodium falciparum K1 infected in erythrocytes assessed as inhibition of parasite growth incubated for 72 hrs by [3H]hypoxanthine incorporation based microbeta counting analysis; format: functional, organism-based; settings: K1, Erythrocyte
CYP2C19 = CYP2C19 (Homo sapiens, UniProt P33261); assay: Inhibition of CYP2C19 (unknown origin) at 1 uM relative to control; format: ADME
Sequence of CYP2C19 (P33261 whole entry): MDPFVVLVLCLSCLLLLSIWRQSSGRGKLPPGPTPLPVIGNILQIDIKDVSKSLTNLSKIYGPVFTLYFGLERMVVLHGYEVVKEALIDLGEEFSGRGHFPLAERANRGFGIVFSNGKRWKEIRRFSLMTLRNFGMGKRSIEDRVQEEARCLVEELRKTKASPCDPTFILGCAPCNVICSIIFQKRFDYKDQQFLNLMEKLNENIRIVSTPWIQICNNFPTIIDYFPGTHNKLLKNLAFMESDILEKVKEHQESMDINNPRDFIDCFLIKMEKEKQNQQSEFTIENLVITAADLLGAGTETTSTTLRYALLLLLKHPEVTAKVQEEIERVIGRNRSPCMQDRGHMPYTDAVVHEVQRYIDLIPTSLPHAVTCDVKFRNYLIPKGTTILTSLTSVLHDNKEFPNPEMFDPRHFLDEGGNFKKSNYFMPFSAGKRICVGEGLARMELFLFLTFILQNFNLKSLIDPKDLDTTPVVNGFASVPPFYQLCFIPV

[25] = Intrinsic clearance in human liver microsomes at 1 uM measured for 60 mins by LC-MS/MS analysis; format: ADME, Microsome; settings: read-out: CLH
CYP2D6 [26] = molecular target: T1, CYP2D6; assay: Inhibition of CYP2D6 (unknown origin) at 10 uM relative to control; format: ADME

In the case of `Cc1nn(C(C)(C)C)c2nc(C3CC3)cc(C(=O)N3CCOc4ccncc43)c12`, the EC50 (Plasmodium falciparum [1]) is reported as 7 nM, the Activity (Plasmodium falciparum [2]) is reported as “Active” and the EC50 (Plasmodium falciparum [3]) is reported as 0.8 nM. For the same compound, the Ratio (Plasmodium falciparum [4]) was 5, the inhibition at 1 µM (CYP2D6 [5]) was 43.8% and the inhibition at 1 µM (CYP2C9) was 12.8%. It also gave an EC50 (Plasmodium falciparum [6]; Dd2-B2, 72 h) of 37.5 nM, an EC90 (Plasmodium falciparum [6]; Dd2-B2, time 72 hrs) of 68.9 nM and an inhibition at 10 µM (CYP1A2 [7]) of 55.1%. The inhibition at 10 µM (CYP3A4) was 90.5%, the Activity (Plasmodium falciparum [8]) was “Active” and the efflux ratio [9] was 1.4. For the same compound, the EC50 (Plasmodium falciparum [10]) was 6 nM, the EC50 (Plasmodium falciparum [11]) was 3 nM and the EC50 (Plasmodium falciparum [12]; Dd2-B2, 72 h) was 6.8 nM. It also gave an EC90 (Plasmodium falciparum [12]; Dd2-B2, time 72 hrs) of 12.3 nM, an EC50 (Plasmodium falciparum [13]) of 6 nM and an Activity (Plasmodium falciparum [14]) of 28 nM. It also gave a Ratio (Plasmodium falciparum [15]) of 5, an inhibition at 1 µM (CYP1A2 [16]) of 18% and an EC50 (Plasmodium falciparum [17]) of 4 nM. The EC50 (Plasmodium falciparum [18]) was 7 nM, the EC50 (Plasmodium falciparum [19]) was 7 nM and the EC50 (Plasmodium falciparum [20]) was 16 nM. For the same compound, the CC50 at 48 h [21] was 4810 nM, the Activity (Plasmodium falciparum [22]) was 1.6 10^6No_unit and the EC50 (Plasmodium falciparum [23]) was 5 nM. For the same compound, the EC50 (Plasmodium falciparum [24]) was 9 nM, the inhibition at 1 µM (CYP2C19) was 3.6% and the microsomal CLint at 1 µM [25] was 116 µL/min/mg. It also gave an inhibition at 10 µM (CYP2D6 [26]) of 86.4%.
